Data set [1] has as its system Human immunodeficiency virus type 1 reverse transcriptase (Human immunodeficiency virus 1), Q72547 [K103N].
Description: Compound was evaluated for its ability to inhibit a virus containing the clinically relevant K103N mutation
Data set [2] concerns the target T1, Human immunodeficiency virus type 1 reverse transcriptase (Human immunodeficiency virus 1, UniProt Q72547). Put plainly: Compound was evaluated for its ability to inhibit HIV-1 Reverse Transcriptase in an in vitro enzyme assay.
Data set [3] has as its target Human immunodeficiency virus type 1 reverse transcriptase (Human immunodeficiency virus 1) (UniProt Q72547).
Description: Compound was evaluated for its ability to inhibit the wild type RF strain of HIV-1
Data set [4] has as its target T1, Human immunodeficiency virus type 1 reverse transcriptase. Put plainly: Inhibition of HIV-1 Reverse Transcriptase in an in vitro enzyme assay.
Data set [5] can be described thus: Tmax was determined. It is filed as ADME.
Data set [6] is described as follows: Total plasma concentration at 24 hr at a dose of 10 mg/kg when administered orally to rhesus monkey. It counts as ADME, organism-based, Macaca mulatta. Details: dose 10 mg/kg, route oral. Conditions: po, read-out: C24h.
Data set [7] in a line: Cmax was determined. It counts as ADME, organism-based. The note with it: in vivo.
Data set [8] can be described thus: Area under curve obtained at a dose of 10 mg/kg when administered orally to rhesus monkey. It counts as ADME, organism-based, Macaca mulatta. Details: dose 10 mg/kg, route oral. The note with it: in vivo, po.

One may read the IC90 as the point of the concentration-response curve where the effect stands at 90%. By IC50 is commonly meant the midpoint of a concentration-inhibition curve. With `CC(C)C#CC1(C(F)(F)F)OCC(=O)Nc2ccc(Cl)cc21` (centres undefined), the figures for the concentration for an effect of 90% (IC90) in data set [1] and in data set [3] were 784 nM and 9.7 nM, respectively. Moreover, inhibition in data set [2] was half-maximal at 423 nM (IC50).
As to `CC1OC(C#CC2CC2)(C(F)(F)F)c2c(ccc(F)c2F)NC1=O` (centres undefined), the 90% effect concentration (IC90) came out at 75 nM in data set [1] and 5.8 nM in data set [3]. In addition, in data set [2], 193 nM corresponded to half-maximal inhibition (IC50).
On to `O=C1COC(/C=C/C2CC2)(C(F)(F)F)c2cc(Cl)ccc2N1` (centres undefined), for which the values for the IC90 in data set [1] and in data set [3] were 362 nM and 3.9 nM, respectively. Also, in data set [2], the IC50 was found to be 108 nM.
In the case of `CCC1OC(/C=C/C2CC2)(C(F)(F)F)c2cc(Cl)ccc2NC1=O` (centres undefined), the IC90 in data set [1] was found to be 13 nM; in data set [3] it was 7.8 nM. In data set [2], this compound gave an IC50 of 185 nM.
`O=C1Nc2ccc(Cl)cc2C(C#CC2CC2)(C(F)(F)F)OC1CC(F)(F)F` (centres undefined) registered a 50% inhibitory concentration (IC50) in data set [2] of 235 nM. The IC90 in data set [3] is 16.8 nM.
Turning to `CC1OC(/C=C/C2CC2)(C(F)(F)F)c2cc(F)ccc2NC1=O` (centres undefined), the results for the IC90 in data set [1] and in data set [3] were 118 nM and 7.6 nM, respectively. Further, in data set [2], the 50% inhibitory concentration (IC50) came to 129 nM.
Take `C[C@@H]1O[C@](C#CC2CC2)(C(F)(F)F)c2cc(F)ccc2NC1=O`: the IC90 in data set [1] was found to be 333 nM; in data set [3], 5.2 nM. The compound further came in with an IC50 in data set [2] of 95 nM.
In the case of `O=C1COC(C#Cc2ccoc2)(C(F)(F)F)c2cc(Cl)ccc2N1` (centres undefined), it took 2510 nM to reach half-maximal inhibition in data set [2] (IC50). This compound also showed an IC90 in data set [3] of 47.5 nM.
For `O=C1Nc2ccc(Cl)cc2[C@@](C#CC2CC2)(C(F)(F)F)N1`, the IC90 in data set [1] was 10 nM; in data set [3], 2 nM. In addition, the IC50 in data set [2] turned out to be 32 nM.
The like results for `CC[C@@H]1O[C@](C#CC2CC2)(C(F)(F)F)c2cc(F)ccc2NC1=O` were, in that order, 117 nM, 5.3 nM and 171 nM.
`CC(C)C1OC(C#CC2CC2)(C(F)(F)F)c2cc(Cl)ccc2NC1=O` (centres undefined): inhibition in data set [2] was half-maximal at 597 nM (IC50). Moreover, in data set [3], the IC90 is 20.7 nM.
As to `CCC1OC(C#CC2CC2)(C(F)(F)F)c2cc(Cl)ccc2NC1=O` (centres undefined), it took 391 nM to reach half-maximal inhibition in data set [4] (IC50). Also, the concentration for an effect of 90% (IC90) came to 139 nM in data set [1] and 8.4 nM in data set [3].
In the case of `CCC1OC(/C=C/C2CC2)(C(F)(F)F)c2cc(F)ccc2NC1=O` (centres undefined), the 90% effect concentration (IC90) in data set [1] came to 70 nM; in data set [3] it was 2.5 nM. In data set [2], this compound yielded a 50% inhibitory concentration (IC50) of 151 nM.
A word on the Tmax: it is the time from dosing to the highest level. As a reminder, the Cmax is the peak of the concentration-time curve. In general, AUC refers to concentration integrated over time. For the compound `CC1OC(/C=C/C2CC2)(C(F)(F)F)c2cc(Cl)ccc2NC1=O` (centres undefined), in data set [5], the Tmax turned out to be 11 h. Besides, the concentration at 24 h in data set [6] was 1400 nM. Also, the Cmax in data set [7] was 2360 nM. In data set [8], this compound yielded an AUC of 50.8 µM·h. Further, the IC90 in data set [1] stood at 35 nM; in data set [3], 2.5 nM. Besides, the midpoint of inhibition in data set [2], the IC50, lay at 46 nM.
For the compound `O=C1COC(C#CC2CC2)(C(F)(F)F)c2cc(Cl)ccc2N1` (centres undefined), the concentration for an effect of 90% (IC90) in data set [1] worked out at 1400 nM; in data set [3], 9.1 nM. This compound also came in with an IC50 in data set [2] of 432 nM.
For the compound `O=C1COC(C#Cc2ccccc2)(C(F)(F)F)c2cc(Cl)ccc2N1` (centres undefined), the results for the IC90 in data set [1] and in data set [3] were 4100 nM and 24.3 nM, respectively. Besides, in data set [2], 3300 nM corresponded to half-maximal inhibition (IC50).
On to `O=C1Nc2ccc(Cl)cc2[C@@](/C=C/C2CC2)(C(F)(F)F)N1`, for which the IC90 in data set [1] worked out at 27 nM; in data set [3], 2.1 nM. The same compound came in with a half-maximal inhibitory concentration (IC50) in data set [2] of 23 nM.
The compound `C[C@H]1O[C@](C#CC2CC2)(C(F)(F)F)c2cc(F)ccc2NC1=O` had an IC50 in data set [2] of 1940 nM. For the same compound, in data set [3], the 90% effect concentration (IC90) was 189 nM.
On to `C[C@H]1O[C@](C#CC2CC2)(C(F)(F)F)c2cc(Cl)ccc2NC1=O`, for which the IC90 in data set [1] turned out to be 1130 nM; in data set [3] it was 7 nM. Further, half-maximal inhibition in data set [2] (IC50) was put at 249 nM.
In the case of `CC1OC(/C=C/C2CC2)(C(F)(F)F)c2c(ccc(F)c2F)NC1=O` (centres undefined), the concentration for an effect of 90% (IC90) in data set [1] is 81 nM; in data set [3] it was 5.2 nM. The same compound gave a 50% inhibitory concentration (IC50) in data set [2] of 173 nM.
`CC[C@H]1O[C@](C#CC2CC2)(C(F)(F)F)c2cc(F)ccc2NC1=O`: the IC50 in data set [2] came out at 1140 nM. This compound showed an IC90 in data set [3] of 87.4 nM.
For `CCC#CC1(C(F)(F)F)OCC(=O)Nc2ccc(Cl)cc21` (centres undefined), the concentration for an effect of 90% (IC90) in data set [1] came out at 1760 nM; in data set [3], 9.1 nM. The compound further showed an IC50 in data set [2] of 964 nM.
`CCCC1OC(C#CC2CC2)(C(F)(F)F)c2cc(Cl)ccc2NC1=O` (centres undefined) registered an IC50 in data set [2] of 799 nM. In data set [3], this compound registered an IC90 of 17.2 nM.
Regarding `C[C@@H]1O[C@](C#CC2CC2)(C(F)(F)F)c2cc(Cl)ccc2NC1=O` (relative stereo), the time of peak concentration (Tmax) in data set [5] came out at 6 h. Besides, the concentration at 24 h in data set [6] came out at 1140 nM. The highest level in data set [7] (Cmax) was 1670 nM. For the same compound, in data set [8], the area under the curve (AUC) was 30 µM·h. Also, the results for the 90% effect concentration (IC90) in data set [1] and in data set [3] were 29 nM and 2.2 nM, respectively. Moreover, the IC50 in data set [2] turned out to be 82 nM.

(Values after ChEMBL document CHEMBL1134799, “4,1-Benzoxazepinone analogues of efavirenz (Sustiva) as HIV-1 reverse transcriptase inhibitors” (Bioorg Med Chem Lett, 2001).)
